# Data published in US9145436B2 (priority 2010, dated 2015).
# Like-named read-outs stand apart in the source and are kept apart here.
# Legend:
# E. coli = test: Antibiotic dilution assay, E. coli; format: cell-based; details: liquid medium, OD600, read-out: Bacterial IC 50 (μM) E. Coli
# Description: (§1) The antibiotic activity of the compounds was determined via antibiotic dilution assay. After filling 100 μl growth medium into all the wells of a 96 well plate, the compounds were diluted from 1 mM to 0.010 μM. The growth control wells contained growth medium instead of inhibitory agents. The inhibitory control contained Compound 3 (200 μM). Suspensions of E. coli and B. pumilus in growth medium with an approximate OD600 of 0.03-0.04 were added to the diluted compounds, incubated for 6-8 hours on the shaker at 750 rpm and 37° C. until the growth control had reached an OD600 of about 0.6-0.8. The OD600 was then determined on a standard plate reader.
# (§2) Various analogs were compared in vitro to determine key properties. Antibacterial effect was determined in representative Gram negative (E. coli) and positive (S. aureus) organisms using the method of example 16. Effects on lung inflammation were compared using the method of example 32. BALF (Bronchoalveolar Lavage Fluid) TNFa levels are determined by ELISA. In vitro toxicity is determined by growth inhibition of Jurkat lymphocytes in DMEM medium as determined using Alamar Blue reaction. Effects on cytokine production are determined in J774 cells stimulated with either LPS (0.1 μg/mL) or medium from J774 cells stimulated for 24 h with 0.2 μg/mL LPS. Cytokines are determined by ELISA and expressed as % DMSO control at 50 μM inhibitor concentration.
# S. aureus = test: Antibiotic dilution assay, S. aureus; format: cell-based; details: liquid medium, OD600, read-out: Bacterial IC 50 (μM) S. Aureus
# Description: as §1, §2
# BALF TNFa = test: Airway inflammation by inhaled LPS, BALF TNFa by ELISA; format: in vivo, DBA or Swiss female mice; details: 30 minutes prior to LPS challenge
# Description: as §2
# Airway inflammation is induced by inhalation of solutions containing bacterial LPS. 10 μg per mouse is provided intranasally in phosphate buffered saline. 90 minutes after challenge, bronchioalveolar lavage fluid is recovered from the lung using PBS (0.5 mL) injected into the lung via the trachea and frozen prior to analysis for cytokines by ELISA. TNFa is the primary cytokine measured. Compound 2 and other test substances are dissolved in 0.02% citric acid in water, and the pH of the resulting solution is set to 6.2. Compounds are administered 30 minutes prior to challenge either as 25 μL solutions for intranasal use, or as 125 μL volumes for p.o. application in 25 g DBA or Swiss female mice. The results of said interventions include reduction of lung and/or plasma cytokines. Example data are recorded in FIG. 13.
# Jurkat lymphocytes = test: In vitro toxicity: growth inhibition of Jurkat lymphocytes, Alamar Blue; format: cell-based; details: DMEM medium
# Description: as §2
# [1] = tested on: TNFa production in J774 cells; test: Cytokine production in stimulated J774 cells, TNFa (ELISA); format: cell-based; details: Normal (LPS 0.1 μg/mL)
# Description: as §2
# [2] = tested on: GM_CSF production in J774 cells; test: Cytokine production in stimulated J774 cells, GM-CSF (ELISA); format: cell-based; details: Cond. (medium from J774 cells stimulated 24 h with 0.2 μg/mL LPS)
# Description: as §2
# [3] = tested on: IL-10 production in J774 cells; test: Cytokine production in stimulated J774 cells, IL-10 (ELISA); format: cell-based; details: Normal (LPS 0.1 μg/mL)
# Description: as §2
# [4] = tested on: IL-12 production in J774 cells; test: Cytokine production in stimulated J774 cells, IL-12 (ELISA); format: cell-based; details: Normal (LPS 0.1 μg/mL)
# Description: as §2
# HeLa = test: Cytotoxicity of the substances (TC50), HeLa; format: cell-based; details: HeLa cells
# Jurkat = test: Cytotoxicity of the substances (TC50), Jurkat; format: cell-based; details: Jurkat cells
# bacteria = details: relative to azithromycin; cited from earlier work
Compound,IC50 (E. coli) [µM],IC50 (S. aureus) [µM],BALF TNFa (% Vehicle) 20 μmol/kg i.n. (BALF TNFa) [% Vehicle],Jurkat Cell toxicity Normal growth limit (Jurkat lymphocytes) [µM],"Cytokine production in J774 cells as % DMSO control, TNFa Normal 50 μM [1] [% DMSO control]","Cytokine production in J774 cells as % DMSO control, GM_CSF Cond. 50 μM [2] [% DMSO control]","Cytokine production in J774 cells as % DMSO control, IL-10 Normal 50 μM [3] [% DMSO control]","Cytokine production in J774 cells as % DMSO control, IL-12 Normal 50 μM [4] [% DMSO control]",IC50 (E. coli; Escherichia coli) [µM],IC50 (S. aureus; Staphylococcus aureus) [µM],BALF TNFa (% Vehicle) 200 μmol/kg p.o. (BALF TNFa) [% Vehicle],TC50 HeLa (HeLa) [µM],TC50 Jurkat (Jurkat) [µM],"antibacterial effectiveness, fold less effective than the cladinosylated molecule (bacteria)"
CCCCCCCCC=CCCCCCCCC(=O)OC1C(OC2C(C)C(=O)C(C)C(=O)OC(CC)C(C)(O)C(OC(=O)CCCCCCCC=CCCCCCCCC)C(C)N(C)CC(C)CC2(C)O)OC(C)CC1N(C)C (stereo not drawn) [Compound 9b],1950,2500,112,100,89,53,123,76,,,,,,
CC[C@H]1OC(=O)[C@H](C)[C@@]2(O)O[C@@](C)(C[C@@H](C)CN[C@H](C)[C@@H](O)[C@]1(C)O)[C@H](O[C@@H]1O[C@H](C)C[C@H](NC)[C@H]1O)[C@H]2C [Compound 14],,,62,100,93,153,95,143,1320,1950,95,,,
CC[C@H]1OC(=O)[C@H](C)C(O)[C@H](C)[C@@H](O[C@@H]2O[C@H](C)C[C@H](N(C)C)[C@H]2O)/C(C)=C/[C@@H](C)CN(C)[C@H](C)[C@@H](O)[C@]1(C)O (stereo partly drawn) [Compound 13],2140,1570,78,100,99,193,98,47,,,,,,
"CC[C@H]1OC(=O)[C@H](C)[C@@H](O[C@H]2C[C@@](C)(OC)[C@@H](O)[C@H](C)O2)[C@H](C)[C@@H](O[C@@H]2O[C@H](C)C[C@H](N(C)C)[C@H]2O)[C@](C)(O)C[C@@H](C)CN(C)[C@H](C)[C@@H](O)[C@]1(C)O [Compound 3, 9a-aza-9a-methyl-9-deoxo-9a-homoerythromycin A, reference compound]",,,75,100,96,118,122,60,5.5,2.25,,> 100,> 100,
CC[C@H]1OC(=O)[C@H](C)C(=O)[C@H](C)[C@@H](O[C@@H]2O[C@H](C)CC(N(C)C)[C@H]2OC(C)=O)[C@](C)(O)C[C@@H](C)CN(C)[C@H](C)[C@@H](O)[C@]1(C)O (stereo partly drawn) [Compound 8],,,81,100,85,83,134,45,1270,1970,67,,,
"CCC1OC(=O)C(C)C2(O)OC(C)(CC(C)CN(C)C(C)C(=O)C1(C)O)C(OC1OC(C)CC(N(C)C)C1O)C2C (stereo not drawn) [Compound 4, 14-(4-Dimethylamino-3-hydroxy-6-methyl-tetrahydro-pyran-2-yloxy)-5-ethyl-1,6-dihydroxy-2,6,8,9,11,13,15-heptamethyl-4,16-dioxa-9-aza-bicyclo[11.2.1]hexadecane-3,7-dione]",,,,,,,,,,,,> 100,> 100,
"CCOC(=O)CC1(C)C(=O)O[C@H](CC)[C@@](C)(O)[C@H](O)[C@@H](C)N(C)C[C@H](C)C[C@]2(C)O[C@@]1(O)[C@H](C)[C@H]2O[C@@H]1O[C@H](C)CC(N(C)C)[C@H]1O (stereo partly drawn) [Compound 5, [14-(4-Dimethylamino-3-hydroxy-6-methyl-tetrahydro-pyran-2-yloxy)-5-ethyl-1,6,7-trihydroxy-2,6,8,9,11,13,15-heptamethyl-3-oxo-4,16-dioxa-9-aza-bicyclo[11.2.1]hexadec-2-yl]-acetic acid ethyl ester]",,,90,100,39,114,95,7,980,2600,,,> 100,
CC[C@H]1OC(=O)[C@H](C)C(O)[C@H](C)[C@@H](O[C@@H]2O[C@H](C)CC([N+](C)(C)[O-])[C@H]2O)[C@](C)(O)C[C@@H](C)C[N+](C)([O-])[C@H](C)[C@@H](O)[C@]1(C)O (stereo partly drawn) [Compound 5b],,,56,100,88,81,116,67,1090,1920,,,,
CC[C@H]1OC(=O)[C@H](C)[C@@H](O)[C@H](C)[C@@H](O[C@@H]2O[C@H](C)C[C@H](N(C)C)[C@H]2O)[C@](C)(O)C[C@@H](C)CN(C)[C@H](C)[C@@H](O)[C@]1(C)O [decladinosyl azithromycin],,,,,,,,,,,,,,ca. 5 fold
CCC1OC(=O)C(C)C(=O)C(C)C(OC2OC(C)CC(NC)C2O)C(C)(O)CC(C)CN(C)C(C)C(O)C1(C)O (stereo not drawn) [Compound 11],1090,2340,80,100,86,174,96,53,,,98,,,
CC[C@H]1OC(=O)[C@H](C)C(=O)[C@H](C)[C@@H](O[C@@H]2O[C@H](C)CC(N(C)C)[C@H]2O)[C@](C)(O)C[C@@H](C)CN(C)[C@H](C)[C@H]2OC(=O)O[C@@]21C (stereo partly drawn) [Example 10],,,99,100,72,14,118,40,1350,1600,,,,
